PMC11452689 (Communications Biology, 2024)

Assay: LUV membrane polarisation, oxonol VI, Na+/K+ gradient
Format: biochemical
Conditions: 100 mM NaCl inside, 100 mM KCl outside, pH 7.2, 0.5 MIC

valinomycin
diffusion potential in the cation gradient LUV model, in words: inside positive polarisation
